Source: US11534441B2, “MAP4K1 inhibitors” (Blueprint Medicines Corporation, priority 2020, dated 2022)

Biological target: MAP4K1 (HPK1) (Homo sapiens (Human), UniProt Q92918)
Assay: MAP4K1 (HPK1) biochemical enzymatic activity, electrophoretic mobility shift (EZReader 2), ATP at APPKM (26 μM)
Excerpt: MAP4K1 (HPK1) and relevant off-target enzymatic activity was monitored using the Perkin Elmer electrophoretic mobility shift technology platform—the EZReader 2. […] Within the linear, steady-state phase of the kinase enzymatic reaction, the mixed pool of phosphorylated (product) and non-phosphorylated (substrate) peptides was passed through the microfluidic system of the PerkinElmer EZ Reader 2, under an applied electric potential difference. The presence of the phosphate group on the product peptide provided a difference in mass and charge between that of the substrate peptide, resulting in a separation of the substrate and product pools in the sample (Perrin et al. 2010). As the product and substrate peptide mixture passes the lasers within the instrument, these pools are detected (λex=488 nm, λent=568 nm) and resolved as separate peaks. The ratio between these peaks reflects the activity of the compound at that concentration, in that well, under those conditions.
Inhibitors were dissolved in 100% DMSO at a stock concentration of 10 mM. A 100×, 10-point, 4-fold serial dilution of each inhibitor was created in 100% DMSO either manually or on a Hamilton STAR liquid handler, starting at a relevant concentration, usually 1 mM. A volume of 0.130 μL of each concentration was transferred to the relevant wells of a 384-well plate (Greiner 781 201) in duplicate using a TTPLabtech Mosquito nano-litre dispenser. Using a Multidrop Combi, the remaining constituents of the kinase reaction were added to the 130 nL of dosed compound as follows (see table below for final reaction details):
Enzyme activity assays at the ^APPKM for ATP or 1 mM ATP: In each well of a 384-well plate, 0.1-15 nM of untreated enzyme was incubated in a total of 13 μL of buffer (100 mM HEPES pH 7.5, 0.015% Brij 35, 10 mM MgCl2, 1 mM DTT) with 1.5 μM fluorescent peptid and 20-1000 μM ATP, at 25° C., for 60-180 minutes in the presence or absence of a dosed concentration series of compound (1% DMSO final concentration). The kinase reactions were stopped by the addition of 70 μl of Stop buffer (100 mM HEPES pH 7.5, 0.015% Brij 35, 35 mM EDTA and 0.2% of Coating Reagent 3 (Caliper Lifesciences)). The plates were read on a Caliper EZReader 2 as described above.

Sequence of MAP4K1 (HPK1) (Q92918 whole entry): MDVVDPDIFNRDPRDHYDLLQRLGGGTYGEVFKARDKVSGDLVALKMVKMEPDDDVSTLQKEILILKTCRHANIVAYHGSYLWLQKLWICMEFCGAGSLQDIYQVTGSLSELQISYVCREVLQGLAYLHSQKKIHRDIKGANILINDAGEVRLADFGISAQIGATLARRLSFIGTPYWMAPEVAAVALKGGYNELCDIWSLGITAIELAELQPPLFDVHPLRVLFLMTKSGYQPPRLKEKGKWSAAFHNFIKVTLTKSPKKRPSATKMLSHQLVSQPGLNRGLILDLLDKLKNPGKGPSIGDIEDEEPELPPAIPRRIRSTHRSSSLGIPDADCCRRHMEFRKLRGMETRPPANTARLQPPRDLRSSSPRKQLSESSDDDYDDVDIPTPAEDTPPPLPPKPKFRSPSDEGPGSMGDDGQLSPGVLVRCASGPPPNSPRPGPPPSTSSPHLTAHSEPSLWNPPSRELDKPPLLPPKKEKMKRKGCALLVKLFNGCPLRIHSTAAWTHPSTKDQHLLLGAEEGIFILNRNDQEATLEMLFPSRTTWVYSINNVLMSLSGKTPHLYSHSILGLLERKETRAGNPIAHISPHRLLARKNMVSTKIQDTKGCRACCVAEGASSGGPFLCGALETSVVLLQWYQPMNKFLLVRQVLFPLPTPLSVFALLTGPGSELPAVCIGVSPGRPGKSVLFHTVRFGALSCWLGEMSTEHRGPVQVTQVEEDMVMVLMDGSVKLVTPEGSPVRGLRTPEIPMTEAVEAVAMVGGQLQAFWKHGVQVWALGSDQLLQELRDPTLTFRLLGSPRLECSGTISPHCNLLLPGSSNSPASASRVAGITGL

| IC50 (class designation) | IC50 (numeric value) | SMILES |
| --- | --- | --- |
| 1.1 to 10 nM | 5.12 nM | C[C@@H]1OC(=O)c2ccc(Nc3cc4c([C@](C)(N)C5CC5)cnc(OC5(C)CC5)c4cn3)nc2[C@H]1C [Compound 89] |
| 1.1 to 10 nM | 3.42 nM | C[C@@H]1c2nc(Nc3cc4c([C@@](C)(N)C5CC5)cnc(OC5(C)CC5)c4cn3)ccc2C(=O)OC1(C)C [Compound 90] |
| 1.1 to 10 nM | 3.65 nM | CC[C@@](C)(N)c1cnc(OC2(C)CC2)c2cnc(Nc3ccc4c(n3)[C@@H](C)[C@@H](C)OC4=O)cc12 [Compound 93] |
| 1.1 to 10 nM | 4.54 nM | C[C@@H]1c2nc(Nc3cc4c([C@@](C)(N)C5CC5)cnc(OC5(C)CC5)c4cn3)ccc2C(=O)O[C@@H]1C [Compound 95] |
| > 10 nM | 19.1 nM | COc1ncc([C@@](C)(N)C2CC2)c2cc(Nc3ccc4c(n3)C(C)(C)OC4=O)ncc12 [Compound 98] |
| < 0.3 nM | 0.13 nM | CC1(C)Cc2nc(Nc3cc4c(C(C)(C)N)ccc(Cl)c4cn3)ccc2C(=O)O1 [Compound 104, 2-((5-(2-Aminopropan-2-yl)-8-chloroisoquinolin-3-yl)amino)-7,7-dimethyl-7,8-dihydro-5H-pyrano[4,3-b]pyridin-5-one] |
| 0.31 to 1 nM | 0.62 nM | CC(C)(N)c1cnc(OC2CC2)c2cnc(Nc3ccc4c(n3)C3(CC3)COC4=O)cc12 [Compound 107] |
| < 0.3 nM | 0.12 nM | C[C@H]1OC(=O)c2ccc(Nc3cc4c(C(C)(C)N)cnc(OC5CC5)c4cn3)nc2C12CC2 [Compound 119] |
| 0.31 to 1 nM | 0.5 nM | C[C@@H]1OC(=O)c2ccc(Nc3cc4c(C(C)(C)N)cnc(OC5CC5)c4cn3)nc2C12CC2 [Compound 120] |
| < 0.3 nM | 0.16 nM | CC[C@](C)(N)c1cnc(NC2CC2)c2cnc(Nc3ccc4c(n3)[C@@H](C)[C@H](C)OC4=O)cc12 [Compound 122] |
| 1.1 to 10 nM | 1.84 nM | CC1(C)CCc2nc(Nc3cc4c(C(C)(C)N)cnc(OC5CC5)c4cn3)ccc2C(=O)O1 [Compound 125] |
| 1.1 to 10 nM | 1.09 nM | CC[C@H]1c2nc(Nc3cc4c(C(C)(C)N)cnc(OC5CC5)c4cn3)ccc2C(=O)O[C@H]1C [Compound 128] |
| < 0.3 nM | 0.11 nM | CC[C@@](C)(N)c1cnc(OC2CC2)c2cnc(Nc3ccc4c(n3)[C@](C)(CC)OC4=O)cc12 [Compound 129] |
| 0.31 to 1 nM | 0.46 nM | CC[C@H]1OC(=O)c2ccc(Nc3cc4c(C(C)(C)N)cnc(OC5CC5)c4cn3)nc2[C@@H]1C [Compound 130] |
| 1.1 to 10 nM | 1.33 nM | CC[C@@H]1OC(=O)c2ccc(Nc3cc4c(C(C)(C)N)cnc(OC5CC5)c4cn3)nc2[C@H]1C [Compound 134] |
| 0.31 to 1 nM | 0.46 nM | C[C@@H]1OC(=O)c2ccc(Nc3cc4c(C(C)(C)N)cnc(OC5CC5)c4cn3)nc2C1(C)C [Compound 137] |
| < 0.3 nM | 0.2 nM | CCCOc1ncc([C@](C)(N)CC)c2cc(Nc3ccc4c(n3)[C@@H](C)[C@H](C)OC4=O)ncc12 [Compound 142] |
| 0.31 to 1 nM | 0.31 nM | CCCOc1ncc([C@](C)(N)CC)c2cc(Nc3ccc4c(n3)CC(C)(C)OC4=O)ncc12 [Compound 143] |
| 1.1 to 10 nM | 3.89 nM | CCCOc1ncc([C@@](C)(N)CC)c2cc(Nc3ccc4c(n3)CC(C)(C)OC4=O)ncc12 [Compound 144] |
| 1.1 to 10 nM | 1.77 nM | CCCOc1ncc([C@@](C)(N)CC)c2cc(Nc3ccc4c(n3)[C@@H](C)[C@H](C)OC4=O)ncc12 [Compound 145] |

| IC50 (class designation) | IC50 (numeric value) | SMILES |
| --- | --- | --- |
| < 0.3 nM | 0.2 nM | C[C@@H]1OC(=O)c2ccc(Nc3cc4c([C@](C)(N)C5CC5)cnc(NC5CC5)c4cn3)nc2[C@H]1C [Compound 149] |
| 1.1 to 10 nM | 5.24 nM | C[C@@H]1OC(=O)c2ccc(Nc3cc4c([C@@](C)(N)C5CC5)cnc(NC5CC5)c4cn3)nc2[C@H]1C [Compound 150] |
| 1.1 to 10 nM | 6.46 nM | COc1ncc(C(C)(C)NC2CCC2)c2cc(Nc3ccc4c(n3)CC(C)(C)OC4=O)ncc12 [Compound 158, 2-((5-(2-(Cyclobutylamino)propan-2-yl)-8-methoxy-2,7-naphthyridin-3-yl)amino)-7,7-dimethyl-7,8-dihydro-5H-pyrano[4,3-b]pyridin-5-one] |
| 1.1 to 10 nM | 1.25 nM | C[C@@H]1OC(=O)c2ccc(Nc3cc4c(C(C)(C)N)cnc(O[C@@H]5CCOC5)c4cn3)nc2[C@H]1C [Compound 160] |
| 1.1 to 10 nM | 1.37 nM | C[C@@H]1OC(=O)c2ccc(Nc3cc4c(C(C)(C)N)cnc(O[C@H]5C[C@H](F)C5)c4cn3)nc2[C@H]1C [Compound 161] |
| < 0.3 nM | 0.24 nM | C[C@@H]1OC(=O)c2ccc(Nc3cc4c(C(C)(C)N)cnc(OCC5(F)CC5)c4cn3)nc2[C@H]1C [Compound 162] |
| < 0.3 nM | 0.25 nM | C[C@@H]1OC(=O)c2ccc(Nc3cc4c(C(C)(C)N)cnc(O[C@H]5C[C@@H](F)C5)c4cn3)nc2[C@H]1C [Compound 163] |
| 1.1 to 10 nM |  | CC1(C)Cc2nc(Nc3cc4c([C@@](C)(N)C5CCC5)cnc(OC5CC5)c4cn3)ccc2C(=O)O1 [Compound 169] |
| 1.1 to 10 nM | 6.52 nM | CC1(C)Cc2nc(Nc3cc4c(C(C)(C)NCCO)cnc(OC5CC5)c4cn3)ccc2C(=O)O1 [Compound 177, 2-((8-Cyclopropoxy-5-(2-((2-hydroxyethyl)amino)propan-2-yl)-2,7-naphthyridin-3-yl)amino)-7,7-dimethyl-7,8-dihydro-5H-pyrano[4,3-b]pyridin-5-one] |
| 0.31 to 1 nM | 0.4 nM | C[C@@H]1OC(=O)c2ccc(Nc3cc4c(C(C)(C)N)cnc(OC5(C)CC5)c4cn3)nc2C1(C)C [Compound 186] |
| < 0.3 nM | 0.06 nM | CC[C@](C)(N)c1cnc(OC2CC2)c2cnc(Nc3ccc4c(n3)C3(CC3)[C@H](C)OC4=O)cc12 [Compound 187] |
| < 0.3 nM | 0.19 nM | COC[C@@](C)(N)c1cnc(OC2CC2)c2cnc(Nc3ccc4c(n3)[C@H](C)[C@H](C)OC4=O)cc12 [Compound 190] |
| 0.31 to 1 nM | 0.53 nM | CC[C@@H](N)c1cnc(OC2(C)CC2)c2cnc(Nc3ccc4c(n3)[C@@H](C)C(C)(C)OC4=O)cc12 [Compound 191] |
| < 0.3 nM | 0.27 nM | CC(C)(N)c1cnc(OC2CC2)c2cnc(Nc3ccc4c(n3)C3(CC3)C(C)(C)OC4=O)cc12 [Compound 195] |
| 0.31 to 1 nM | 0.34 nM | C[C@@H]1OC(=O)c2ccc(Nc3cc4c(C(C)(C)N)cnc(OC5(C)COC5)c4cn3)nc2[C@H]1C [Compound 197] |
| < 0.3 nM | 0.27 nM | CC1(Oc2ncc(C(C)(C)N)c3cc(Nc4cnc5c(c4)C(=O)C(C)(C)OC5=O)ncc23)COC1 [Compound 198] |
| 0.31 to 1 nM | 0.36 nM | CC1(Oc2ncc(C(C)(C)N)c3cc(Nc4ccc5c(n4)C4(CC4)C(C)(C)OC5=O)ncc23)CC1 [Compound 199] |
| 0.31 to 1 nM | 0.48 nM | COC[C@@](C)(N)c1cnc(OC2CC2)c2cnc(Nc3ccc4c(n3)CC(C)(C)OC4=O)cc12 [Compound 200] |
| < 0.3 nM | 0.14 nM | COC[C@@](C)(N)c1cnc(OC)c2cnc(Nc3ccc4c(n3)[C@@H](C)C(C)(C)OC4=O)cc12 [Compound 201] |

| SMILES | IC50 (class designation) | IC50 (numeric value) |
| --- | --- | --- |
| CC1(Oc2ncc([C@](C)(N)C3CC3)c3cc(Nc4ccc5c(n4)C(C)(C)COC5=O)ncc23)CC1 [Compound 185] | 0.31 to 1 nM | 0.35 nM |
